Test results reported in publication PMC6136390, “Coptisine-induced inhibition of Helicobacter pylori: elucidation of specific mechanisms by probing urease active site and its maturation process” (Journal of Enzyme Inhibition and Medicinal Chemistry, 2018).
Where two headings read alike, the source gives them in different places.

What was measured:
[1] = target: T1, jack bean urease (JBU) (Canavalia ensiformis, UniProt P07374); experiment: Urease inhibition assay in vitro (modified Berthelot method); format: biochemical
T1 construct: purchased Sigma Aldrich (Steineheim, Germany) type III (catalogue number not given)
T1 sequence (P07374 whole entry, looked up): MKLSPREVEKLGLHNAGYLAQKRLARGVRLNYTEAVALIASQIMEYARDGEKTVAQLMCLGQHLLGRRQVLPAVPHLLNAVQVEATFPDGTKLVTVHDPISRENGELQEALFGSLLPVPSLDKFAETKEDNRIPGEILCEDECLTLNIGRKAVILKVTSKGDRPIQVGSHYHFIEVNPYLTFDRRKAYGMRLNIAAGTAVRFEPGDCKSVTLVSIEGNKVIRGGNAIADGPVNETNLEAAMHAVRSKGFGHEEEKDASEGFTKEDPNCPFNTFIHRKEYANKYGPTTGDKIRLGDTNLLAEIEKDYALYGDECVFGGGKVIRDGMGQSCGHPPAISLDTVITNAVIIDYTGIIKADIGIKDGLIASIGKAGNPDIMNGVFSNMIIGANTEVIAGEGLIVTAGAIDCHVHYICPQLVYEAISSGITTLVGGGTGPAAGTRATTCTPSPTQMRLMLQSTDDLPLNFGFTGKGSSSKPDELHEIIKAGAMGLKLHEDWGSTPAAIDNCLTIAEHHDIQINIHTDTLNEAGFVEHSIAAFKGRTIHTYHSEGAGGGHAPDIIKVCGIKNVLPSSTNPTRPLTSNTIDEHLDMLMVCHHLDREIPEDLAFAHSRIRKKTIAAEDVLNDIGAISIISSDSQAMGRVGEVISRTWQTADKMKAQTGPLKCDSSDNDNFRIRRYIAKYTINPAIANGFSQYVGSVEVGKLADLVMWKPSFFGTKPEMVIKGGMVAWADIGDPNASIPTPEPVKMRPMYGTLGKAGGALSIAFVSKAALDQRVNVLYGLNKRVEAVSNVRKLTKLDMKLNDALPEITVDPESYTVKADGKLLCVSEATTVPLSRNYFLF
Description: (§1) This assay was performed using the modified Berthelot method (phenol-hypochlorite) in 96 well plates. At the beginning of each reaction, different concentrations of urease solution and 150 mM urea as a substrate were mixed in 20 mM HEPES buffer (pH 7.5) at 37 °C. After a 20-min reaction, urease activity was tested by measuring the concentration of ammonia produced by the reaction at 595 nm using the microplate reader (Thermo Fisher Multiskan FC, Instruments, Inc., USA) at ambient temperature. […] One unit (U) of urease activity was defined as the amount of urease required to catalyse 1 μmol urea per min. These experiments were repeated in triplicate.
Coptisine’s ability to inhibit urease activity was determined by measuring amounts of ammonia produced using the modified Berthelot method described above. The assay mixture, which contained 200 μL of enzyme and 200 μL of coptisine solution (0.16–2.51 mM) in 200 μL of 20 mM HEPES buffer (pH 7.5), was incubated for 20 min at 37 °C in 96-well plates. The reaction was then initiated by adding urea solution (150 mM) to determine residual urease activity. AHA was used as a standard urease inhibitor. […] Residual activity (RA %) for each assay was calculated using the following equation: RA % = (activity with inhibitors/activity without inhibitors) × 100%. […]

[2] = tested on: H. pylori strains; experiment: Minimal bactericidal concentration assay (broth dilution); format: cell-based, Helicobacter pylori
Source text: Fourteen H. pylori strains were used in this study. NCTC 11637 and NCTC 26695 strains were purchased from American Type Culture Collection. Sydney Strain-1 (SS1) was kindly provided by Prof. Richard Ferrero of Monash University, Australia. Clinical isolate ICDC 111001 was provided by Prof. Zhang Jian-zhong of the Chinese Center for Disease Control and Prevention, China. Ten clinical isolates (Hp1868, Hp1869, Hp1870, Hp1871, Hp1872, Hp1873, Hp1874, Hp1875, Hp1876, and Hp1877) were obtained from Renji Hospital, Shanghai Jiaotong University.
(§2) All strains were cultured in Columbia agar base containing 7% sheep blood at 37 °C in a micro-aerophilic environment (5% O2, 10% CO2, and 85% N2). After 3 days, H. pylori was scraped and suspended in phosphate buffered saline (PBS). Turbidimetry was employed to adjust the concentrations of different H. pylori strains (turbidity equivalent to 1.0 McFarland standard). Crude HPU was obtained according to the method described by Matsubara et al.[42]
The broth dilution method was used to determine the minimal bactericidal concentrations (MBCs) of coptisine (25, 37.5, 50, 62.5, 75, 100, and 125 μg/mL) against three H. pylori standard strains (SS1, NCTC 11637, and NCTC 26695) and eleven clinical isolates (ICDC 111001, HP 1868, HP 1869, HP 1870, HP 1871 and HP 1872, HP 1873, HP 1874, HP 1875, HP 1876, and HP 1877). In brief, H. pylori suspension (McFarland = 1.0) was exposed to DMSO (control) and coptisine at 2–4 times MIC in BHI with 10% FBS. After shaking at 120 rpm in the tri-gas incubator for 6 h, 100 μL samples were removed and cultured in Columbia blood agar base[43]. MBC was defined as a 99.9% decrease in viability compared with the control. The experiment was repeated twice.

[3] = tested on: H. pylori cells (SS1); experiment: pH shock experiment in vivo (urea-dependent survival of H. pylori); format: cell-based, Helicobacter pylori; settings: for surviving bacteria, pH =1: 100 mM HCl pH 1, 5 mM urea; for surviving bacteria, pH =1 / surviving bacteria, pH =7.2: 30 min; for surviving bacteria, pH =7.2: PBS pH 7.2, 5 mM urea; for inhibition at 50 µM / inhibition at 100 µM / inhibition at 200 µM: Helicobacter pylori, 0.5 h
Description: H. pylori cells (SS1) were harvested, and the concentration was adjusted to Mc = 4 with saline. Then, bacterial samples were mixed with AHA (positive control, 5 mM) or one of the five alkaloids from Rhizoma Coptidis (coptisine, berberine, jatrorrhizine, epiberberine, and palmatine) in 100 mM HCl (pH = 1) or PBS (pH = 7.2) at 37 °C with or without 5 mM urea. After 30 min of incubation, bacteria were collected by centrifugation at 2000g for 10 min and resuspended in the same volume of PBS. A dilution series (1:1–1:10000) was made from the samples, and the dilutions were plated on solid agar for 5 days to form single colony. Samples from urea-free wells were used as controls. Results are expressed as CFU/mL; the experiment was repeated in triplicate. Inhibition rate was calculated using the following equation: Inhibition rate = (Urea group bacterial mean − X group bacterial mean)/Urea group bacterial mean ×100%, where X represents each experimental group.

[4] = target: T2, H. pylori urease (HPU) (Helicobacter pylori, UniProt P69996); experiment: Urease inhibition assay in vitro (modified Berthelot method); format: biochemical
T2 construct: Crude HPU was obtained according to the method described by Matsubara et al; endogenous in cells; host or cells: cultured Helicobacter pylori (strain not specified)
T2 sequence (P69996 whole entry): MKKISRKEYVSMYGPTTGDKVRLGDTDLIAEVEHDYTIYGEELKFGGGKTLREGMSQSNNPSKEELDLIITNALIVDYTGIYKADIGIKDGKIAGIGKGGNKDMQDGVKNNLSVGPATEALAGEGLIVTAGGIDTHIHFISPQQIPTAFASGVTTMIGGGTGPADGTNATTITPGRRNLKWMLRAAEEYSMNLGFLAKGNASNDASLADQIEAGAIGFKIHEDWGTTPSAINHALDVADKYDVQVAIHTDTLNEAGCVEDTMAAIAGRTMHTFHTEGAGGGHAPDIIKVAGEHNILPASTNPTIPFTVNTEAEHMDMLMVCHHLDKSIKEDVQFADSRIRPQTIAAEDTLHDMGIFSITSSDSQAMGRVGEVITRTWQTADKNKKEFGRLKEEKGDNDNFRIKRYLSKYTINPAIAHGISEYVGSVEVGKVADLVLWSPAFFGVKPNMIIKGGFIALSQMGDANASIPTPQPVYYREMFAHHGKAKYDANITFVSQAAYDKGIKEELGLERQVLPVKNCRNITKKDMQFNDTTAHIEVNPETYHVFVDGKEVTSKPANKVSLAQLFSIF
T2 sequence (P14916 whole entry, further chain): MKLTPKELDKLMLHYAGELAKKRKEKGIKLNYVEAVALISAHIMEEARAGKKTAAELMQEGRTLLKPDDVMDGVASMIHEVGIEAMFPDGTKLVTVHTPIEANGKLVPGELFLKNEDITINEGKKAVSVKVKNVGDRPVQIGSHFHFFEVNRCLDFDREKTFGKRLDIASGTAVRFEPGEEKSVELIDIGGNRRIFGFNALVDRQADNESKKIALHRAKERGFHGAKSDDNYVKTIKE
Description: as §2
as §1, with “These experiments were repeated in triplicate.” left out
Coptisine’s ability to inhibit urease activity was determined by measuring amounts of ammonia produced using the modified Berthelot method described above. […] Residual activity (RA %) for each assay was calculated using the following equation: RA % = (activity with inhibitors/activity without inhibitors) × 100%. […]

[5] = pH 1, read-out: Inhibition rate, pH =1
[6] = pH 7.2, read-out: Inhibition rate, pH =7.2

## c1c2c(cc3c1OCO3)-c1cc3ccc4c(c3c[n+]1CC2)OCO4 [Coptisine]
[1]
  IC50: 260 ± 20 µM
[2]; Helicobacter pylori, NCTC11637, strain NCTC 11637, pH = 7.2, read-out: MBC
  MBC: 62.5 µg/mL
[2]; Helicobacter pylori, NCTC26695, strain NCTC 26695, pH = 7.2, read-out: MBC
  MBC: 37.5 µg/mL
[2]; Helicobacter pylori, clinical isolate HP 1868, pH = 7.2, read-out: MBC
  MBC: 62.5 µg/mL
[2]; Helicobacter pylori, clinical isolate HP 1869 (MET resistance), pH = 7.2, read-out: MBC
  MBC: 62.5 µg/mL
[2]; Helicobacter pylori, clinical isolate HP 1870 (CLR and MET resistance), pH = 7.2, read-out: MBC
  MBC: 37.5 µg/mL
[2]; Helicobacter pylori, clinical isolate HP 1871 (MET resistance), pH = 7.2, read-out: MBC
  MBC: 37.5 µg/mL
[2]; Helicobacter pylori, clinical isolate HP 1872, pH = 7.2, read-out: MBC
  MBC: 37.5 µg/mL
[2]; Helicobacter pylori, clinical isolate HP 1873, pH = 7.2, read-out: MBC
  MBC: 75 µg/mL
[2]; Helicobacter pylori, clinical isolate HP 1874, pH = 7.2, read-out: MBC
  MBC: 100 µg/mL
[2]; Helicobacter pylori, clinical isolate HP 1875, pH = 7.2, read-out: MBC
  MBC: 75 µg/mL
[2]; Helicobacter pylori, clinical isolate HP 1876 (CLR and MET resistance), pH = 7.2, read-out: MBC
  MBC: 75 µg/mL
[2]; Helicobacter pylori, clinical isolate HP 1877, pH = 7.2, read-out: MBC
  MBC: 125 µg/mL
[2]; Helicobacter pylori, clinical isolate ICDC 111001, pH = 7.2, read-out: MBC
  MBC: 50 µg/mL
[2]; Helicobacter pylori, strain SS1, pH = 7.2, read-out: MBC
  MBC: 37.5 µg/mL
[2]; clinical isolate HP 1868
  MBC/MIC: 1.25
[2]; clinical isolate HP 1869
  MBC/MIC: 1.25
[2]; clinical isolate HP 1869 (MET resistance), pH = 7.2
  MBC: 62.5 µg/mL
[2]; clinical isolate HP 1870
  MBC/MIC: 1.5
[2]; clinical isolate HP 1870 (CLR and MET resistance), pH = 7.2
  MBC: 37.5 µg/mL
[2]; clinical isolate HP 1871
  MBC/MIC: 1.5
[2]; clinical isolate HP 1871 (MET resistance), pH = 7.2
  MBC: 37.5 µg/mL
[2]; clinical isolate HP 1872
  MBC/MIC: 1.5
[2]; clinical isolate HP 1873
  MBC/MIC: 1.5
[2]; clinical isolate HP 1874
  MBC/MIC: 2
[2]; clinical isolate HP 1875
  MBC/MIC: 1.5
[2]; clinical isolate HP 1876
  MBC/MIC: 1.5
[2]; clinical isolate HP 1876 (CLR and MET resistance), pH = 7.2
  MBC: 75 µg/mL
[2]; clinical isolate HP 1877
  MBC/MIC: 2.5
[2]; clinical isolate ICDC 111001
  MBC/MIC: 2
[2]; strain NCTC 11637
  MBC/MIC: 2.5
[2]; strain NCTC 26695
  MBC/MIC: 1.5
[2]; strain SS1
  MBC/MIC: 1.5
[3]; 50 μM compound
  surviving bacteria, pH =1: 129 ± 31 CFU/mL
  surviving bacteria, pH =7.2: 1.0 ± 0.2 ×10^4 CFU/mL
[3]; 100 μM compound
  surviving bacteria, pH =1: 25 ± 6 CFU/mL
  surviving bacteria, pH =7.2: 1.3 ± 0.3 ×10^4 CFU/mL
[3]; 200 μM compound
  surviving bacteria, pH =1: 7 ± 3 CFU/mL
  surviving bacteria, pH =7.2: 1.2 ± 0.3 ×10^4 CFU/mL
[3]; [5]
  inhibition at 50 µM: 72.7%
  inhibition at 100 µM: 94.7%
  inhibition at 200 µM: 98.5%
[3]; [6]
  inhibition at 50 µM: 0%
  inhibition at 100 µM: 0%
  inhibition at 200 µM: 0%
[4]
  IC50: 1780 ± 60 µM
